Test results taken from the NIST ThermoML archive (doi:10.1021/je049540s).

What was measured:
[1] = xn = mol fraction of the nth substance listed; details: 308.15 K, 101.3 kPa, Liquid
[2] = activity coefficient (dimensionless); of the first substance listed, at infinite dilution; xn = mol fraction of the nth substance listed; details: 101.3 kPa, Liquid, Differential ebulliometry, x1 = 0

Cc1ccccc1O [2-methylphenol] + CCCCCCCCC
Details	activity coefficient	mass density [kg/m3]
[1], x1 = 0.0661	–	719.58
[1], x1 = 0.0684	–	720.02
[1], x1 = 0.1489	–	736.5
[1], x1 = 0.2085	–	749.6
[1], x1 = 0.2703	–	764.08
[1], x1 = 0.3994	–	797.32
[1], x1 = 0.4008	–	797.69
[1], x1 = 0.4688	–	817.04
[1], x1 = 0.5237	–	833.66
[1], x1 = 0.5941	–	856.51
[1], x1 = 0.6631	–	880.76
[1], x1 = 0.7323	–	906.98
[1], x1 = 0.8106	–	939.53
[1], x1 = 0.8674	–	965.12
[1], x1 = 0.9285	–	994.76
[1], x1 = 1	–	1032.73
[2], 373.15 K	5.84	–
[2], 393.15 K	4.58	–
[2], 413.15 K	3.8	–

Cc1ccccc1O [2-methylphenol] + CCCCCCCCCC
Details	activity coefficient	mass density [kg/m3]
[1], x1 = 0.0637	–	730.49
[1], x1 = 0.0908	–	735.2
[1], x1 = 0.162	–	748.33
[1], x1 = 0.2086	–	757.57
[1], x1 = 0.272	–	770.9
[1], x1 = 0.3186	–	781.32
[1], x1 = 0.4014	–	801.21
[1], x1 = 0.4707	–	819.47
[1], x1 = 0.529	–	836.06
[1], x1 = 0.6014	–	858.4
[1], x1 = 0.6596	–	878.02
[1], x1 = 0.7379	–	906.95
[1], x1 = 0.7876	–	927.04
[1], x1 = 0.8714	–	964.58
[1], x1 = 0.9348	–	996.28
[1], x1 = 0.9617	–	1010.78
[1], x1 = 1	–	1032.73
[2], 393.15 K	4.15	–
[2], 413.15 K	3.49	–
[2], 433.15 K	3.04	–

Cc1ccccc1O [2-methylphenol] + CCCCCCCCCCC
Details	activity coefficient, 393.15 K	activity coefficient, 413.15 K	activity coefficient, 433.15 K	mass density, x1 = 1 [kg/m3]
[1]	–	–	–	1032.73
[2]	4.47	3.77	2.85	–

Cc1cccc(O)c1 [3-methylphenol] + CCCCCCCCC
Details	activity coefficient	mass density [kg/m3]
[1], x1 = 0.1021	–	726.54
[1], x1 = 0.1998	–	747.24
[1], x1 = 0.302	–	770.94
[1], x1 = 0.4021	–	796.76
[1], x1 = 0.5	–	825
[1], x1 = 0.7	–	892.22
[1], x1 = 0.9	–	974.43
[1], x1 = 1	–	1022.02
[2], 373.15 K	9.21	–
[2], 393.15 K	7.06	–
[2], 413.15 K	5.96	–

Cc1cccc(O)c1 [3-methylphenol] + CCCCCCCCCC
[2]
Details	activity coefficient
373.15 K	7.79
403.15 K	5.37
433.15 K	4.26

Cc1cccc(O)c1 [3-methylphenol] + CCCCCCCCCCC
Details	activity coefficient	mass density [kg/m3]
[1], x1 = 0.1287	–	748.52
[1], x1 = 0.1853	–	758.11
[1], x1 = 0.3395	–	787.84
[1], x1 = 0.389	–	798.63
[1], x1 = 0.5024	–	826.11
[1], x1 = 0.6023	–	854.21
[1], x1 = 0.6949	–	884.19
[1], x1 = 0.8	–	923.73
[1], x1 = 0.9	–	968.61
[1], x1 = 1	–	1022.02
[2], 393.15 K	6.25	–
[2], 413.15 K	4.9	–
[2], 433.15 K	3.93	–

Cc1cccc(O)c1 [3-methylphenol] + CCCCCCCCCCCC
[1]
Details	mass density [kg/m3]
x1 = 0.1325	756.67
x1 = 0.2055	767.97
x1 = 0.3009	784.51
x1 = 0.4009	804.35
x1 = 0.6976	883.71
x1 = 0.7987	921.29
x1 = 0.895	963.9
x1 = 1	1022.02

CCCCCCCCCC [decane] + Cc1ccccc1O
Details	mass density [kg/m3]
[1], x2 = 0	720.24

CCCCCCCCCCCC [dodecane] + Cc1cccc(O)c1
Details	mass density [kg/m3]
[1], x2 = 0	738.63

CCCCCCCCC [nonane] + Cc1cccc(O)c1
Details	mass density [kg/m3]
[1], x2 = 0	707.41

CCCCCCCCC [nonane] + Cc1ccccc1O
Details	mass density [kg/m3]
[1], x2 = 0	707.41

CCCCCCCCCCC [undecane] + Cc1cccc(O)c1
Details	mass density [kg/m3]
[1], x2 = 0	729.13

CCCCCCCCCCC [undecane] + Cc1ccccc1O
[1]
Details	mass density [kg/m3]
x2 = 0	729.13
x2 = 0.0367	734.21
x2 = 0.0684	738.92
x2 = 0.0746	739.92
x2 = 0.1306	748.8
x2 = 0.2094	762.7
x2 = 0.2809	776.41
x2 = 0.3636	794.01
x2 = 0.4749	820.79
x2 = 0.5311	835.93
x2 = 0.5989	855.95
x2 = 0.6593	875.61
x2 = 0.7261	899.41
x2 = 0.8065	931.92
x2 = 0.8662	959.18
x2 = 0.9476	1001.43
